Patent publication US8703776B2 (Cymabay Therapeutics, Inc., priority 2011, dated 2014)

Target: T1, human GPR131 (Homo sapiens, UniProt Q8TDU6)
T1 construct: expressed in transfected cells
T1 sequence (Q8TDU6 1-330): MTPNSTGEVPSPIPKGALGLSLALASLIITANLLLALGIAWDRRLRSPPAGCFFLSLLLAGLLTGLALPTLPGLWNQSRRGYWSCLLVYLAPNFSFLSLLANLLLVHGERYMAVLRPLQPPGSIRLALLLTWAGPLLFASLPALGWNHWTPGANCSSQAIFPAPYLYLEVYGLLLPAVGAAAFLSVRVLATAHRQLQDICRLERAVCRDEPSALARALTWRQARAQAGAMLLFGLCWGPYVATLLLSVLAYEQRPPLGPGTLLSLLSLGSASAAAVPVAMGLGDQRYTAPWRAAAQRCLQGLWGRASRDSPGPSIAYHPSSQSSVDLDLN
Experiment: Stimulation of cAMP in stable cell line expressing human GPR131 (FRET cAMP kit)
Format: cell-based
Conditions: 0.5 h; 1.1 μM compound, relative to maximal stimulatory activity of lithocholic acid at 3.3 μM; 30 minutes at 37° C.; read-out: Percent Activity @ 1.1 μM (of 3.3 uM LCA) (%)
Description: This assay was developed using a stable cell line expressing human GPR131.
To measure cAMP activity in response to GPR131 agonists, GPR131 cells suspended in DMEM/F12 medium with 1 mM IBMX were seeded in 384 well plates at 5000 cells per well. After incubating with test compounds at 37° C. for 30 minutes cAMP was measured using a fluorescene resonance energy transfer cAMP kit from Cis Bio (Bedford, Mass.) according to the manufacturer's instructions. Briefly, cells were lysed, and cAMP levels determined by competitive immunoassay using D2 labeled cAMP, and europium cryptate tagged anti cAMP antibody. Decreases in the FRET signal (fluorescence ratio (665 nm/620 […]) correspond to increases in intracellular cAMP levels.
Activities of test compounds in Table 1 below are expressed as % activity at 1.1 μM compound compared to the maximal stimulatory activity of lithocholic acid (LCA) (determined at 3.3 μM LCA)

Compared with CN(Cc1ccncc1)C(=O)c1cnc(SCc2cccc(C(F)(F)F)c2F)n1-c1ccc(F)cc1 [Compound 610, 2-((2-Fluoro-3-(trifluoromethyl)benzyl)thio)-1-(4-fluorophenyl)-N-methyl-N-(pyridin-4-ylmethyl)-1H-imidazole-5-carboxamide], CN(Cc1ccncc1)C(=O)c1cnc(SCc2cccc(C(F)(F)F)c2)n1-c1ccc(F)cc1 [Compound 621, 1-(4-Fluorophenyl)-N-methyl-N-(pyridin-4-ylmethyl)-2-((3-(trifluoromethyl)benzyl)thio)-1H-imidazole-5-carboxamide] is lower in activation at 1.1 µM: 100% for the first, 98% for the second.

Going from CN(Cc1ccncc1)C(=O)c1cnc(SCc2cc(F)ccc2F)n1-c1ccc(F)cc1 [Compound 611, 2-((2,5-Difluorobenzyl)thio)-1-(4-fluorophenyl)-N-methyl-N-(pyridin-4-ylmethyl)-1H-imidazole-5-carboxamide] to CN(Cc1ccncc1)C(=O)c1cnc(SCc2cc(F)ccc2Cl)n1-c1ccc(F)cc1 [Compound 615, 2-((2-Chloro-5-fluorobenzyl)thio)-1-(4-fluorophenyl)-N-methyl-N-(pyridin-4-ylmethyl)-1H-imidazole-5-carboxamide], the activation at 1.1 µM falls from 99% to 98%.

COc1ccc(Cl)c(CSc2ncc(C(=O)N(C)Cc3ccncc3)n2-c2ccc(F)cc2)c1F [Compound 612, 2-((6-Chloro-2-fluoro-3-methoxybenzyl)thio)-1-(4-fluorophenyl)-N-methyl-N-(pyridin-4-ylmethyl)-1H-imidazole-5-carboxamide] and CCN(Cc1ccncc1)C(=O)c1cnc(SCc2c(Cl)ccc(OC)c2F)n1-c1ccc(F)cc1 [Compound 626, 2-((6-Chloro-2-fluoro-3-methoxybenzyl)thio)-N-ethyl-1-(4-fluorophenyl)-N-(pyridin-4-ylmethyl)-1H-imidazole-5-carboxamide] are the same in activation at 1.1 µM: 100% for the first, 100% for the second.

CN(Cc1ccncc1)C(=O)c1cnc(SCc2ccccc2F)n1-c1ccc(F)cc1 [Compound 613, 2-((2-Fluorobenzyl)thio)-1-(4-fluorophenyl)-N-methyl-N-(pyridin-4-ylmethyl)-1H-imidazole-5-carboxamide] and CN(Cc1ccncc1)C(=O)c1cnc(SCc2cc(Cl)ccc2F)n1-c1ccc(F)cc1 [Compound 616, 2-((5-Chloro-2-fluorobenzyl)thio)-1-(4-fluorophenyl)-N-methyl-N-(pyridin-4-ylmethyl)-1H-imidazole-5-carboxamide] are the same in activation at 1.1 µM: 100% for the first, 100% for the second.

CN(Cc1ccncc1)C(=O)c1cnc(SCc2c(F)ccc(F)c2Cl)n1-c1ccc(F)cc1 [Compound 617, 2-((2-Chloro-3,6-difluorobenzyl)thio)-1-(4-fluorophenyl)-N-methyl-N-(pyridin-4-ylmethyl)-1H-imidazole-5-carboxamide] and Cc1ccc(F)c(CSc2ncc(C(=O)N(C)Cc3ccncc3)n2-c2ccc(F)cc2)c1Cl [Compound 620, 2-((2-Chloro-6-fluoro-3-methylbenzyl)thio)-1-(4-fluorophenyl)-N-methyl-N-(pyridin-4-ylmethyl)-1H-imidazole-5-carboxamide] are the same in activation at 1.1 µM: 99% for the first, 99% for the second.

Compared with CN(Cc1ccncc1)C(=O)c1cnc(SCc2cc(F)c(F)cc2Cl)n1-c1ccc(F)cc1 [Compound 618, 2-((2-Chloro-4,5-difluorobenzyl)thio)-1-(4-fluorophenyl)-N-methyl-N-(pyridin-4-ylmethyl)-1H-imidazole-5-carboxamide], CN(Cc1ccncc1)C(=O)c1cnc(SCc2cc(F)cc(F)c2F)n1-c1ccc(F)cc1 [Compound 619, 1-(4-Fluorophenyl)-N-methyl-N-(pyridin-4-ylmethyl)-2-((2,3,5-trifluorobenzyl)thio)-1H-imidazole-5-carboxamide] is higher in activation at 1.1 µM: 94% for the first, 96% for the second.

Cc1ccc(Cl)c(CSc2ncc(C(=O)N(C)Cc3ccncc3)n2-c2ccc(F)cc2)c1F [Compound 622, 2-((6-Chloro-2-fluoro-3-methylbenzyl)thio)-1-(4-fluorophenyl)-N-methyl-N-(pyridin-4-ylmethyl)-1H-imidazole-5-carboxamide] and CCN(Cc1ccncc1)C(=O)c1cnc(SCc2c(Cl)ccc(C)c2F)n1-c1ccc(F)cc1 [Compound 627, 2-((6-Chloro-2-fluoro-3-methylbenzyl)thio)-N-ethyl-1-(4-fluorophenyl)-N-(pyridin-4-ylmethyl)-1H-imidazole-5-carboxamide] are the same in activation at 1.1 µM: 100% for the first, 100% for the second.

Cc1nn(C)cc1CN(C)C(=O)c1cnc(SCc2nc3ccccc3o2)n1-c1ccc(F)cc1 [Compound 629, 2-((Benzo[d]oxazol-2-ylmethyl)thio)-N-((1,3-dimethyl-1H-pyrazol-4-yl)methyl)-1-(4-fluorophenyl)-N-methyl-1H-imidazole-5-carboxamide] and Cc1nn(C)cc1CN(C)C(=O)c1cnc(SCc2cc3ccccn3n2)n1-c1ccc(F)cc1 [Compound 632, N-((1,3-Dimethyl-1H-pyrazol-4-yl)methyl)-1-(4-fluorophenyl)-N-methyl-2-((pyrazolo[1,5-a]pyridin-2-ylmethyl)thio)-1H-imidazole-5-carboxamide] are the same in activation at 1.1 µM: 100% for the first, 100% for the second.

First: CCc1noc(CSc2ncc(C(=O)N(C)Cc3cn(C)nc3C)n2-c2ccc(F)cc2)n1 [Compound 630, N-((1,3-Dimethyl-1H-pyrazol-4-yl)methyl)-2-(((3-ethyl-1,2,4-oxadiazol-5-yl)methyl)thio)-1-(4-fluorophenyl)-N-methyl-1H-imidazole-5-carboxamide]
Second: Cc1nn(C)cc1CN(C)C(=O)c1cnc(SCc2ncn(C)n2)n1-c1ccc(F)cc1 [Compound 634, N-((1,3-Dimethyl-1H-pyrazol-4-yl)methyl)-1-(4-fluorophenyl)-N-methyl-2-(((1-methyl-1H-1,2,4-triazol-3-yl)methyl)thio)-1H-imidazole-5-carboxamide]
The activation at 1.1 µM of the first is higher: 98% for the first, 91% for the second.

First: Cc1nn(C)cc1CN(C)C(=O)c1cnc(SCc2cc(C(C)C)no2)n1-c1ccc(F)cc1 [Compound 631, N-((1,3-Dimethyl-1H-pyrazol-4-yl)methyl)-1-(4-fluorophenyl)-2-(((3-isopropylisoxazol-5-yl)methyl)thio)-N-methyl-1H-imidazole-5-carboxamide]
Second: Cc1csc(CSc2ncc(C(=O)N(C)Cc3cn(C)nc3C)n2-c2ccc(F)cc2)n1 [Compound 636, N-((1,3-Dimethyl-1H-pyrazol-4-yl)methyl)-1-(4-fluorophenyl)-N-methyl-2-(((4-methylthiazol-2-yl)methyl)thio)-1H-imidazole-5-carboxamide]
The activation at 1.1 µM of the first is lower: 97% for the first, 98% for the second.

Compared with Cc1nn(C)cc1CN(C)C(=O)c1cnc(SCc2ccn(C)n2)n1-c1ccc(F)cc1 [Compound 633, N-((1,3-Dimethyl-1H-pyrazol-4-yl)methyl)-1-(4-fluorophenyl)-N-methyl-2-(((1-methyl-1H-pyrazol-3-yl)methyl)thio)-1H-imidazole-5-carboxamide], Cc1nn(C)cc1CN(C)C(=O)c1cnc(SCc2ncccn2)n1-c1ccc(F)cc1 [Compound 635, N-((1,3-Dimethyl-1H-pyrazol-4-yl)methyl)-1-(4-fluorophenyl)-N-methyl-2-((pyrimidin-2-ylmethyl)thio)-1H-imidazole-5-carboxamide] is higher in activation at 1.1 µM: 93% for the first, 98% for the second.

Work on CCOC(=O)CSc1ncc(C(=O)N(C)Cc2cn(C)nc2C)n1-c1ccc(F)cc1 [Compound 637, Ethyl 2-((5-(((1,3-dimethyl-1H-pyrazol-4-yl)methyl)(methyl)carbamoyl)-1-(4-fluorophenyl)-1H-imidazol-2-yl)thio)acetate] yielded an activation at 1.1 µM of 94%.
